Assay results from patent US6140335A, “Use of mizolastine for treating inflammatory diseases associated with 5-lipoxygenase” (Sanofi-Synthelabo, priority 1997, dated 2000).

How the values were obtained:
[1] = target: T1, 5-LO obtained from a preparation of rat leukaemic basophil cells (RBL-1) (Rattus norvegicus, UniProt P12527); assay: Inhibition of 5-LO in Rats (RBL-1 preparation); assay type: biochemical; details: rat 5-LO (RBL-1); linoleic acid; 5 min preincubation, 8 min at room temperature; absorption at 234 nm; read-out: inhibitory concentration (IC50)
T1 construct: 5-LO obtained from a preparation of rat leukaemic basophil cells (RBL-1); endogenous in cells; host or cells: RBL-1 (rat leukaemic basophil cells)
T1 sequence (P12527 1-673): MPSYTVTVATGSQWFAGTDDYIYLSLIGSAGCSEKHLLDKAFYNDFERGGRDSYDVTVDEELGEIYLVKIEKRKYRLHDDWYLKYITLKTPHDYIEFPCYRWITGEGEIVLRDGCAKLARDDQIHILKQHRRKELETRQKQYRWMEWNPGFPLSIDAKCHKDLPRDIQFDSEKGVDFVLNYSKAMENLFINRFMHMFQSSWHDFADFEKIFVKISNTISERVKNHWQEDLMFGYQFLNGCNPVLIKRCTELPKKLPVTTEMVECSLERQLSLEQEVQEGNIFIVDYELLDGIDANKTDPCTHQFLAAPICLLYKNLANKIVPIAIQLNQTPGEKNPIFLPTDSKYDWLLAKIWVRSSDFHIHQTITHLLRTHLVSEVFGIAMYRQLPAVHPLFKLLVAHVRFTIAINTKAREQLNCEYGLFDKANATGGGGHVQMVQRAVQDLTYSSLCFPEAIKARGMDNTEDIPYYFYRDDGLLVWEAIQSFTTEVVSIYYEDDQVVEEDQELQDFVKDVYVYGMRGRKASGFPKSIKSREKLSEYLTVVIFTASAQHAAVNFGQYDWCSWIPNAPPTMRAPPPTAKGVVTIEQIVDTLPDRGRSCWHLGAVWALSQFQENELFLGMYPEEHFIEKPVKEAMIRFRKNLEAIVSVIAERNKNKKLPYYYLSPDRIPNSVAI
Description: The tests were carried out according to the procedure described by R. W. Egan and P. H. Gale in J. Biol. Chem., 260, 1154-1159, 1985, with 5-LO obtained from a preparation of rat leukaemic basophil cells (RBL-1). Mizolastine is incubated with the enzyme for 5 minutes at room temperature and the reaction is initiated by addition of linoleic acid. After incubating for 8 minutes at room temperature, the reaction is stopped by addition of sodium hydroxide and the absorption is read at 234 nm in order to determine the level of 5-HETE.

[2] = target: T2, 5-LO isolated from commercial HL60 cells (Homo sapiens, UniProt P09917); assay: Inhibition of 5-LO in Man (HL60 5-LO); assay type: biochemical; details: 5-LO from HL60 cells; arachidonic acid 0.4 μM; 10 min at room temperature; 5-HETE by RIA; read-out: inhibitory concentration (IC50)
T2 construct: 5-LO isolated from commercial HL60 cells; endogenous in cells; host or cells: HL60
T2 sequence (P09917 1-674): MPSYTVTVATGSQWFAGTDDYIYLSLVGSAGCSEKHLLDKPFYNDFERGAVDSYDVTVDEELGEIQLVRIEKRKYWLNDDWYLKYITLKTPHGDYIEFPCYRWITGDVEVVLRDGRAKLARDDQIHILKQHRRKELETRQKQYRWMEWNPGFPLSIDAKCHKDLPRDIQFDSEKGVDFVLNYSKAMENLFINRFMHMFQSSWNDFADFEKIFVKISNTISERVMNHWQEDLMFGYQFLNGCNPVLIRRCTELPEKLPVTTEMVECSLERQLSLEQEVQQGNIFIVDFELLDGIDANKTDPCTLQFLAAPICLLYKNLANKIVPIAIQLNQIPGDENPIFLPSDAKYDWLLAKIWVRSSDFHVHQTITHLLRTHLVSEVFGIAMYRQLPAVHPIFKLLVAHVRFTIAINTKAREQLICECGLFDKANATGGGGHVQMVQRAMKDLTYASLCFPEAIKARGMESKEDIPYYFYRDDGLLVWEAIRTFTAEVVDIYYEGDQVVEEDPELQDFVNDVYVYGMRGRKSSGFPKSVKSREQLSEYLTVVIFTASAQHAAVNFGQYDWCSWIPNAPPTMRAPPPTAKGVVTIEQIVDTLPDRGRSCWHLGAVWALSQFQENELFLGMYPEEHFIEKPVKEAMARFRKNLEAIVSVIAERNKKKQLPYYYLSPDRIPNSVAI
Description: Mizolastine was tested on 5-LO isolated from commercial HL60 cells. The mizolastine is incubated for 10 minutes at room temperature in the presence of arachidonic acid (0.4 μM) and 5-LO. The experiment is carried out simultaneously in the presence of nordihydrogualaretic acid as reference product. The amount of 5-HETE formed is determined by RIA (Coffrey et al., J. Biol. Chem., 267-270, 1992).

[3] = tested on: inflammatory oedema of rat limbs induced by the injection of AA; assay: In vivo activity in a model of inflammation of rat limbs (oedema by injection of AA); details: 0.3 mg/kg orally 2 hours before AA injection; after 4 hours; plethysmography
Description: a) inflammation by injection of AA
Inflammatory oedema of rat limbs induced by the injection of AA is produced and evaluated according to the method of Di Martino et al. (Agents and actions, 21, 303-305, 1987) except that the AA concentration used is 0.3% (v/v).
The mizolastine is given orally 2 hours before the injection of AA. An AA solution, prepared at the time of use in a buffer solution (0.1 ml; 0.2 M carbonate; pH=11.2), is injected into the subplantar part of a rat's right hind limb.
The volume of the inflammatory reaction is measured by plethysmography after 1, 2, 3 and 4 hours.

[4] = tested on: rat rectocolitis induced by trinitrobenzenesulphonic acid (TNBS); assay: In vivo activity in a model of inflammation of experimental colitis in rats (TNBS); details: 3 mg/kg orally one hour before and one day after TNBS, after 3 days, significant
Description: Mizolastine was studied in a model of rat rectocolitis induced by trinitrobenzenesulphonic acid (TNBS), according to the method described by Morris et al. (Gastroenterology, 96, 795-803, 1989).
The mizolastine is given orally (3 mg/kg) one hour before and one day after the instillation of TNBS (40 mg/kg in 50% ethanol) into the distal part of the colon. After 3 days, measurement of the macroscopic index of the damage, of the oedema/hypertrophy (weight of tissues) and of the myeloperoxidase activity, as a measure of the infiltration of the neutrophils, is carried out. Mizolastine imparts a significant reduction in the damage, in the oedema/hypertrophy (weight of tissues) and in the myeloperoxidase activity of 67%, 57% and 66% respectively at 3 mg/kg.

IC50 [1]: 4.6 µM | IC50 [2]: 16 µM
Structure (SMILES): CN(c1nccc(O)n1)C1CCN(c2nc3ccccc3n2Cc2ccc(F)cc2)CC1 [mizolastine, 2-[[1-[1-[(4-fluorophenyl)methyl]-1H-benzimidazol-2-yl]-4-piperidyl]methylamino]-4-pyrimidinol]
inhibition, relative to the control, of the inflammation induced [3]: 55% | reduction in the myeloperoxidase activity ([4]; infiltration of neutrophils): 66% | reduction in the damage (macroscopic index) [4]: 67% | reduction in the oedema/hypertrophy (weight of tissues) [4]: 57%
